Assay results published in the supplement of paper PMC8671470.
± gives the standard deviation of the averaged measurements.

Tests used:
Conditions in all cases: 72 h
BV-173 [1] = system: BV-173
Procedure, shortened: (§1)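 Fifteen myeloid leukaemia cell lines were seeded in RPMI 1640 at densities titrated to the linear growth range and placed in 384-well plates with acoustically pre-printed compounds at five tenfold doses from 1 to 10,000 nM, in duplicate. After 72 h at 37 °C with 5% CO2, luminescent ATP viability was normalised to vehicle and to a positive control at 10 µM, and curves were fitted with a four-parameter log-logistic model. The IC50 was obtained from these fits.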

HEL [2] = system: HEL
Procedure, shortened: as §1

HL-60 [3] = system: HL-60
Procedure, shortened: as §1

K-562 [4] = system: K-562
Procedure, shortened: as §1

KCL-22 = system: KCL-22
Procedure, shortened: as §1

KG-1 = system: KG-1
Procedure, shortened: as §1

KU-812 [5] = system: KU-812
Procedure, shortened: as §1

LAMA-84 [6] = system: LAMA-84
Procedure, shortened: as §1

ML-2 [7] = system: ML-2
Procedure, shortened: as §1

MOLM-13 = system: MOLM-13
Procedure, shortened: as §1

MV4-11 [8] = system: MV4-11
Procedure, shortened: as §1

Mono-Mac-6 [9] = system: Mono-Mac-6
Procedure, shortened: as §1

NOMO-1 [10] = system: NOMO-1
Procedure, shortened: as §1

SHI-1 [11] = system: SHI-1
Procedure, shortened: as §1

THP-1 [12] = system: THP-1
Procedure, shortened: as §1

HL-60 [13] = assay: cell viability (% survival relative to DMSO control); higher = less cytotoxic
Procedure, shortened: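 In 384-well plates, the full library was rescreened in duplicate on HL-60 cells in RPMI 1640 with 10% FBS, at 1–10,000 nM in five tenfold concentrations, for 72 h at 37 °C, 5% CO2. Each run also held DMSO or 100 nM of one of three metabolic inhibitors. Viability was measured by CellTiter-Glo and normalised to DMSO wells and to wells with proteasome inhibitor, present at 10 μM. Any area under the curve comes from four-parameter log-logistic fitting with drc and PharmacoGx.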

BV-173 [14] = assay: cell viability (% survival relative to DMSO control, bortezomib = 0%); higher = less cytotoxic
Procedure, shortened: (§2)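 Fifteen myeloid leukaemia cell lines (10 AML, 5 CML) were seeded at a density titrated to the linear growth range into 384-well plates pre-printed with compounds at 1, 10, 100, 1000 or 10000 nM in duplicate. Plates were incubated for 72 h at 37 °C with 5% CO2. Viability was then read by CellTiter-Glo luminescence. Each value is percent survival averaged over the duplicates, with vehicle set to 100% and a 10 µM positive control to 0%.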

HEL [15] = assay: as above
Procedure, shortened: as §2

HL-60 [16] = assay: as above
Procedure, shortened: as §2

K-562 [17] = assay: as above
Procedure, shortened: as §2

KU-812 [18] = assay: as above
Procedure, shortened: as §2

LAMA-84 [19] = assay: as above
Procedure, shortened: as §2

ML-2 [20] = assay: as above
Procedure, shortened: as §2

MV4-11 [21] = assay: as above
Procedure, shortened: as §2

Mono-Mac-6 [22] = assay: as above
Procedure, shortened: as §2

NOMO-1 [23] = assay: as above
Procedure, shortened: as §2

SHI-1 [24] = assay: as above
Procedure, shortened: as §2

THP-1 [25] = assay: as above
Procedure, shortened: as §2

O=C1O/C(=C/Br)CCC1c1cccc2ccccc12 (stereo not given) [Bromoenol Lactone]
Conditions | IC50 (cell viability) [µM]
BV-173 [1] | 4.15
HEL [2] | 8.39
HL-60 [3] | > 10
K-562 [4] | 9.03
KCL-22 | 7.07
KG-1 | 8.59
KU-812 [5] | 5.18
LAMA-84 [6] | > 10
ML-2 [7] | > 10
MOLM-13 | 5.36
MV4-11 [8] | 5.73
Mono-Mac-6 [9] | > 10
NOMO-1 [10] | 3.55
SHI-1 [11] | > 10
THP-1 [12] | 4.53

cell viability [%], HL-60 [13]
Conditions | 0.001 µM | 0.01 µM | 0.1 µM | 1 µM | 10 µM
co-treatment: AZD3965 100 nM | 95.1 ± 10 | 97 ± 6.7 | 98.2 ± 5.9 | 96.796 ± 0.025 | 93.5 ± 3.1
co-treatment: DMSO vehicle | 100 ± 2.4 | 99.8 ± 7.1 | 100 ± 1.4 | 96.4 ± 5.3 | 87.9 ± 2.6
co-treatment: GSK2194069 100 nM | 90.2 ± 14 | 92.4 ± 9.3 | 108 ± 7.8 | 89.2 ± 2.9 | 115 ± 20
co-treatment: pictilisib 100 nM | 96.5 ± 35 | 106 ± 18 | 110 ± 9.4 | 101.3 ± 0.12 | 104 ± 13

cell viability [%]
Conditions | 1 nM | 10 nM | 100 nM | 1000 nM | 10000 nM
BV-173 [14] | 98.1 | 104 | 94.8 | 85.9 | 24.3
HEL [15] | 105 | 103 | 91.3 | 99.8 | 41.3
HL-60 [16] | 100 | 101 | 144 | 90.7 | 77.2
K-562 [17] | 102 | 106 | 98.1 | 93.5 | 46.9
KU-812 [18] | 98.3 | 93.3 | 102 | 86.1 | 45.8
LAMA-84 [19] | 101 | 99.2 | 99.9 | 95.9 | 74
ML-2 [20] | 102 | 100 | 94.6 | 92.9 | 59.7
MV4-11 [21] | 99 | 106 | 105 | 92.4 | 45.8
Mono-Mac-6 [22] | 98.4 | 102 | 93.8 | 95.6 | 52.7
NOMO-1 [23] | 108 | 100 | 100 | 82.7 | 40.4
SHI-1 [24] | 102 | 92.9 | 108 | 91.2 | 83.2
THP-1 [25] | 97.3 | 97.6 | 92.3 | 81.4 | 44.7
